Measured values from patent US9718823B2, “2, 6-Di-nitrogen-containing substituted purine derivative, and preparation method, pharmaceutical composition and use thereof” (Zhejiang Medicine Co., Ltd. Xinchang Pharmaceutical Factory, priority 2013, dated 2017).
Read-outs that look alike come from different tables or passages of the source.

Legend:
[1] = test system: U87MG human glioblastoma Multiforme cell strain; assay: Antitumor cell proliferation in vitro, CCK-8 detection kit, U87MG; assay type: cell-based; conditions: U-87 MG, 72 h, U-87MG cells, 1st and 2nd test where printed
Method: (§1) The half inhibitory concentration IC50 of proliferation of three kinds of tumor cell strain (U87MG, PC-3, BT474) for 12 candidate compounds of the present invention is detected by CCK-8 detection kits.
U87MG human glioblastoma Multiforme cell strain (cell bank of Chinese Academy of Sciences)
(§2) The studied compounds are dissolved by DMSO to make the final concentration 10 mM.
(§3) • a) Collecting the cells in logarithmic phase, counting, and resuspending the cells with complete medium. • b) Adjusting the concentration of cells to a suitable concentration, inoculating in 96 well plates, each well is inoculated to 100 μl cell suspension.
(§4) c) incubating cells for 24 hours in a 5% CO2 incubator at temperature of 37° C., under the condition of 100% relative humidity.
(§5) a) The cells in logarithmic phase is collected, counted, resuspended with complete medium. The concentration of cells is adjusted to a suitable concentration (determined in accordance with the optimizable test results of cell density), and the cells is inoculated in 96 well plates, wherein each well is inoculated 100 μl cell suspension, Cells are incubated for 24 hours in 5% CO2 incubator at temperature of 37° C. under the condition of 100% relative humidity.
(§6) b) The test compounds are diluted to 500 μM with culture medium, then diluted in series eight times. […] as 25 μl/well. The final concentrations of the compounds are diluted from 100 μM to 0 μM, with 4 times dilution, and there are a total of 10 concentration points.
(§7) c) Cells are incubated for 72 hours in 5% CO2 incubator at temperature of 37° C. under the condition of 100% relative humidity.
(§8) d) The culture medium is aspirated and discarded, and complete medium containing 10% CCK-8 is incubated in a incubator at 37° C. for 2˜4 hours.
(§9) e) After shocking gently, the absorbance of the culture medium is measured at 450 nm wavelength on SpectraMax M5 Microplate Reader, with the absorbance at 650 nm as reference, to calculate the inhibition rate.

[2] = test system: BT474 human breast cancer cell strain; assay: Antitumor cell proliferation in vitro, CCK-8 detection kit, BT474; assay type: cell-based; conditions: Homo sapiens, BT-474, 72 h, BT-474 cells, 1st and 2nd test where printed
Method: as §1
BT474 human breast cancer cell strain (cell bank of Chinese Academy of Sciences) Reagents and materials:
as §2, §3, §4, §5, §6, §7, §8, §9

PI3Kδ = target: T1, PI3Kδ (Homo sapiens, UniProt O00329); assay: Inhibitory activity to PI3K δ, PI 3-Kinase (human) HTRF Assay kit; assay type: biochemical; conditions: for Inhibition rate % to PI3K delta: dihydrate di-methanesulfonate
T1 construct: purchased Millipore 14-604
T1 sequence (O00329 whole entry): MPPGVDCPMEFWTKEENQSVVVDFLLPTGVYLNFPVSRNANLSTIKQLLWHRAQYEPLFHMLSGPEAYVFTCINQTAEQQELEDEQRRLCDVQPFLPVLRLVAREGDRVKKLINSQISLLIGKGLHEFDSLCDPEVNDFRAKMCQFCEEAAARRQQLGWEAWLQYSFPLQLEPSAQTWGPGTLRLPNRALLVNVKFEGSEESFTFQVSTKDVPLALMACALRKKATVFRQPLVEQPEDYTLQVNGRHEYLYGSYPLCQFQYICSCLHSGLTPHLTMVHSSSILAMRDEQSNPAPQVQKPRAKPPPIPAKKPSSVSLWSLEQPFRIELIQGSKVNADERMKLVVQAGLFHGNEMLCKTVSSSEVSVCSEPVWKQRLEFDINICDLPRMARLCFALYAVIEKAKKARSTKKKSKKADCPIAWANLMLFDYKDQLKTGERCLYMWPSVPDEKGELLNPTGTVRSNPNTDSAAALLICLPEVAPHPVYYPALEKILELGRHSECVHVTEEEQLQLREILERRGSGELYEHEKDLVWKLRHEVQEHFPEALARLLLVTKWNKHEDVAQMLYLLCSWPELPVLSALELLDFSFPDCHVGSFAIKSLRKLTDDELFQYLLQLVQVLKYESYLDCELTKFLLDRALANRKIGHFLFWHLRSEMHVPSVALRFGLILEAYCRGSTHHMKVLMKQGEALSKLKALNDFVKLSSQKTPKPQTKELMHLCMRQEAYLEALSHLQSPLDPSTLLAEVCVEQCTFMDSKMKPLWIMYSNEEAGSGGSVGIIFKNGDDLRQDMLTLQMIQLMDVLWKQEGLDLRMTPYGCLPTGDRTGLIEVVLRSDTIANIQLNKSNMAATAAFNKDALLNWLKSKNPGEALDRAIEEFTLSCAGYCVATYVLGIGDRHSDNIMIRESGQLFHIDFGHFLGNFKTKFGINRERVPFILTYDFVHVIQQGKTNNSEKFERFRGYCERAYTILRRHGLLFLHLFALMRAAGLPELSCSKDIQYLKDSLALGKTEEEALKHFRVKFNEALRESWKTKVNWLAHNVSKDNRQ
T1 sequence (P27986 whole entry partner): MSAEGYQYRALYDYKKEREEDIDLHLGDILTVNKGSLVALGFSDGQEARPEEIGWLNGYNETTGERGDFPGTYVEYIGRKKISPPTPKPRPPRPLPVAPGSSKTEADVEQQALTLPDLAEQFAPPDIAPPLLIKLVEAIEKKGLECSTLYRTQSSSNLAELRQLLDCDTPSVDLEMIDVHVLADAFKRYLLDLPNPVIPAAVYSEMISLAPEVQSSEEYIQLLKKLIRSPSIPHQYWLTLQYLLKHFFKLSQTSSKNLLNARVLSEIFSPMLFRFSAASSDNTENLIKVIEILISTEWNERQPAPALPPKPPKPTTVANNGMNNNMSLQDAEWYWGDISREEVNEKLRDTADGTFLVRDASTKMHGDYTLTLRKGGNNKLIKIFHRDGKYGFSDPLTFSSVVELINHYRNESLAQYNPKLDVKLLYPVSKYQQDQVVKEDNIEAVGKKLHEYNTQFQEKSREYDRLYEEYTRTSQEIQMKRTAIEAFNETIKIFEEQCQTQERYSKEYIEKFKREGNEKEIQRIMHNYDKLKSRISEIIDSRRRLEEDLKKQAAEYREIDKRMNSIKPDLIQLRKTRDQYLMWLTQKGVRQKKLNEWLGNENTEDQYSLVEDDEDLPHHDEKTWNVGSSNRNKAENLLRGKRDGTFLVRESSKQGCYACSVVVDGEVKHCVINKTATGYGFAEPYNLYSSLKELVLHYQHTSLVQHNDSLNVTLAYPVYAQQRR
Method in brief: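 Inhibition of human PI3Kδ was assessed with the Millipore PI 3-Kinase (human) HTRF Assay kit. PI3Kδ was screened at 2 ng/well, diluted in 2×PIP2 operating fluid. Reactions were 20 μL and contained 100 μM ATP. Stop solution was Stop A and Stop B mixed 3:1. Detection solution was DM C, DM A and DM B mixed 18:1:1. Compounds were prepared from DMSO stocks, and percent inhibition was reported.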

[3] = test system: PC-3 cell Akt (Ser473) phosphorylation; assay: Inhibition of phosphorylation level of PC-3 cell Akt (Ser473), Cisbio HTRF phospho Akt (Ser473) cell-based assay; set-up: species or system human; conditions: Homo sapiens, PC-3, PC-3 cells, hEGF 100 ng/ml stimulation; 1st and 2nd test where printed
Method: The inhibitory activity of the compounds of present invention to the phosphorylation level of PC-3 cell Akt (Ser473) is studied by using Cisbio HTRF phospho Akt (Ser473) cell-based assay test kit.
Cell strain: PC-3 prostate cancer cells line (cell bank of Chinese Academy of Sciences) is cultured by using culture medium (F12K+10% FBS).
hEGF is prepared as stock solution of 100 ug/ml with 10 mM acetic acid, and the stock solution is diluted to 200 ng/ml with serum-free medium, added 50 ul to each well to be stimulated.
b) Preparation of Complete Lysate • 4×Lysis Buffer is diluted 4 times with ddH2O to prepare 1×Lysis Buffer. • 100×Blocking Reagent is diluted 100 times with 1×Lysis Buffer.
c) Preparation of Detection Liquid • 20×Anti-Phospho-Akt is diluted 20 times with Detection Buffer. • 20×Anti-Akt is diluted 20 times with Detection Buffer.
The compounds are diluted with DMSO, and the working concentration of compounds is 100 times of detection concentration.
Cells in logarithmic growth phase are collected, counted, and resuspended with complete culture medium;
The cell concentration is adjusted to appropriate concentration, and cell suspension is inoculated into 96 well plates at 50 μl per well;
Cells are incubated for more than 4 h in the 5% CO2 incubator at temperature of 37° C., relative humidity of 100%;
Cell plate is removed from the incubator. The cell suspension is aspirated gently, and 50 ul serum-free F12K medium is quickly added, then the cell plate is placed into the incubator to culture overnight.
The compounds are diluted in a linear gradient with DMSO.
0.5 ul compounds is added into the test well, mixed on oscillators, and incubated at room temperature for 2 hours.
Proportioned hEGF solution is added to test well at 50 μl per well, and the final concentration is 100 ng/ml. serum-free medium is added into The negative control well at 50 μl per well.
The solution is mixed on oscillator and incubated at room temperature for 2 hours.
The liquid in 96 well plates is aspirated by multichannel pipette or the supernatant is discarded gently. The proportioned complete lysate is added quickly at 50 μl per well.
The solution is mixed on oscillator and lysed at room temperature for 30 min.
16 μl cell lysate is transferred from the 96 well plates to white low volume 384 well plates, and the proportioned two pairs of detection antibody are added. The solution is mixed on oscillator, and incubated at room temperature for 4 hours to detect the readings.

[4] = test system: PC-3 human prostate cancer cell strain; assay: Antitumor cell proliferation in vitro, CCK-8 detection kit, PC-3; assay type: cell-based; conditions: Homo sapiens, PC-3, 72 h, PC-3 cells, 1st and 2nd test where printed
Method: as §1
PC-3 human prostate cancer cell strain (cell bank of Chinese Academy of Sciences)
as §2, §3, §4, §5, §6, §7, §8, §9

PI3K α = target: T2, PI3K α (Homo sapiens, UniProt P42336); assay: Inhibitory activity to PI3K α, PI 3-Kinase (human) HTRF Assay kit; assay type: biochemical; conditions: read-out: % Inhibition Rate to PI3K α
T2 construct: purchased Millipore 14-602
T2 sequence (P42336 whole entry): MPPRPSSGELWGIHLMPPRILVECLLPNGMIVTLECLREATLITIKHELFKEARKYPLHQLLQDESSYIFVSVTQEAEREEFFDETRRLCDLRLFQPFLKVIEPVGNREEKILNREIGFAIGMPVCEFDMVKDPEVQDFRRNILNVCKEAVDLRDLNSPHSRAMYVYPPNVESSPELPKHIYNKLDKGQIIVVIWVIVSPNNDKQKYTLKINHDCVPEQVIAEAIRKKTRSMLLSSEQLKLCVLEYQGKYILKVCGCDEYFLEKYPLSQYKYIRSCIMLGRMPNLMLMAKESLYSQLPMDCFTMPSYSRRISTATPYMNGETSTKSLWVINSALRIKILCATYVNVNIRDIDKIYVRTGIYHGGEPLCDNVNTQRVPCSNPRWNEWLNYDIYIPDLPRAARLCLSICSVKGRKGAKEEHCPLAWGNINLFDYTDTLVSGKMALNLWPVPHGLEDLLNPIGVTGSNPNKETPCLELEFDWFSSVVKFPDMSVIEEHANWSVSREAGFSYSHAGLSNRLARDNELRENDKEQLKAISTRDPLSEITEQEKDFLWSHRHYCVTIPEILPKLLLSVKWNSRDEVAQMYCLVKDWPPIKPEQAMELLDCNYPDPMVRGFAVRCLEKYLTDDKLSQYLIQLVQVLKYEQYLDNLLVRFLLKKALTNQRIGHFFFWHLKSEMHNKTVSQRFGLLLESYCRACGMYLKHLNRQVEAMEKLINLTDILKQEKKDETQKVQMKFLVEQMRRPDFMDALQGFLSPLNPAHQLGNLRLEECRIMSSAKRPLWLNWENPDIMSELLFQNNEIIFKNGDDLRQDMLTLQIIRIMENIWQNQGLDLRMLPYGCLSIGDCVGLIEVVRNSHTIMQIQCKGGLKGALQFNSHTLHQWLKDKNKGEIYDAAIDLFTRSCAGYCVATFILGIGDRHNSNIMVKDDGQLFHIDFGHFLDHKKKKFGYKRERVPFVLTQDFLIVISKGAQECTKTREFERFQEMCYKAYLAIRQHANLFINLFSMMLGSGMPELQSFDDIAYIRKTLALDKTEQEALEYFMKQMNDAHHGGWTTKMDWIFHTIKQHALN
T2 sequence (P27986 whole entry partner): as the sequence (P27986 whole entry partner) above
Method in brief: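 HTRF assay using human PI3Kα at 8 ng/well, 100 μM ATP and PIP2 (2× working stock 20 μM) in 20 μL reaction containing 1% DMSO. Screened at 10 μM and 1 μM for percent inhibition, with selected compounds then taken to IC50 determination.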

SMILES | IC50 [1] [nM] | IC50 [2] [nM] | inhibition at 1 µM (PI3Kδ; 1 μM (Table 7), read-out: Inhibition rate % to PI3Kδ) [%] | inhibition at 10 µM (PI3Kδ; 10 μM (Table 7), read-out: Inhibition rate % to PI3Kδ) [%] | IC50 [3] [nM] | IC50 [4] [nM] | inhibition at 1 µM (PI3K α; 1 μM) [%] | inhibition at 10 µM (PI3K α; 10 μM) [%] | inhibition at 0.4 µM (PI3Kδ; 0.4 μM (Table 8), read-out: Inhibition rate % to PI3K delta) [%] | inhibition at 2 µM (PI3Kδ; 2 μM (Table 8), read-out: Inhibition rate % to PI3K delta) [%] | inhibition at 10 µM (PI3Kδ; 10 μM (Table 8), read-out: Inhibition rate % to PI3K delta) [%] | Inhibition rate % to PI3K delta (PI3Kδ; 0.4 μM (Table 8), 0.4 µM) [%] | Inhibition rate % to PI3K delta (PI3Kδ; 2 μM (Table 8), 2 µM) [%] | Inhibition rate % to PI3K delta (PI3Kδ; 10 μM (Table 8), 10 µM) [%]
CC(C)Nc1nc(Nc2ccc3nccc(-c4ccccc4)c3c2)nc2[nH]cnc12 [MED1007-101, N6-isopropyl-N2-(4-phenylquinoline-6-yl)-9H-purine-2,6-diamine] | 8600 | 441 | 75.7 | 95.6 | 67 | 616 | 49.5 | 126 | – | – | – | – | – | –
c1cc(C2CC2)c2cc(Nc3nc(NC4CC4)c4nc[nH]c4n3)ccc2n1 [MED1007-115, N6-cyclopropyl-N2-(4-cyclopropylquinoline-6-yl)-9H-purine-2,6-diamine dihydrate di-methanesulfonate] | 7360 | 1950 | – | – | 260 | 1570 | – | – | 36.8 | 60.2 | 94.6 | – | – | –
c1ccc(-c2ccnc3ccc(Nc4nc(N5CCOCC5)c5nc[nH]c5n4)cc23)cc1 [MED1007-109S, N-(6-morpholine-9H-purine-2-yl)-4-phenyl quinoline-6-amine dihydrate di-methanesulfonate] | 18300 | 612 | – | – | 116 | 696 | – | – | – | – | – | 30.22 | 57.34 | 94.36
